The subject of the test is BDF1 mice, Adenocarcinoma 755 s.c., tumor weight T/C. Kind of test: NCI In Vivo Anticancer Drug Screen. Data for tumor model Adenocarcinoma 755 (subcutaneous) in B6D2F1 (BDF1) mice. To be noted: endpoint: mean tumor weight, higher = larger tumour. In outline:
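In vivo antitumor screen on a transplantable tumor line. Result equals the measure in compound-treated animals divided by the same measure in vehicle controls.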

The mark [1] stands for this setting: dose: 31.0 mg/kg/injection, schedule: Q01DX011 (ip), vehicle: methylcellulose (MC).
Setting [2] is: dose: 62.0 mg/kg/injection, schedule: Q01DX011 (ip), vehicle: methylcellulose (MC).
Setting [3] is: dose: 12.5 mg/kg/injection, schedule: Q01DX011 (ip), vehicle: carboxymethylcellulose (CMC).
The mark [4] stands for this setting: dose: 25.0 mg/kg/injection, schedule: Q01DX011 (ip), vehicle: carboxymethylcellulose (CMC).
The mark [5] stands for this setting: dose: 50.0 mg/kg/injection, schedule: Q01DX011 (ip), vehicle: carboxymethylcellulose (CMC).
The mark [6] stands for this setting: dose: 200.0 mg/kg/injection, schedule: Q01DX011 (ip), vehicle: carboxymethylcellulose (CMC).

We go through 14 compounds from PubChem BioAssay AID180 (DTP/NCI, 2004).

A word on the T/C: it is the ratio of treated to control.

Where “and” joins values, the source holds several entries; their conditions need not be identical. Identical values can stand only once.

Turning to `C/C(=N\NC(=O)c1ccncc1)c1cccc(Cl)c1`, the T/C runs as follows: (dose: 7.5 mg/kg/injection, schedule: Q01DX011 (ip), vehicle: methylcellulose (MC)) 47 % of control and 50 % of control; (dose: 30.0 mg/kg/injection, schedule: Q01DX011 (ip), vehicle: methylcellulose (MC)) 31 % of control.
Regarding `CCCCCCCCCCCC(=O)N(CC)CC`, the T/C (dose: 15.6 mg/kg/injection, schedule: Q01DX011 (ip), vehicle: other) was 92 % of control; the T/C (dose: 31.2 mg/kg/injection, schedule: Q01DX011 (ip), vehicle: other) was 82 % of control; the T/C (dose: 62.5 mg/kg/injection, schedule: Q01DX011 (ip), vehicle: other) was 84 % of control.
For the compound `Nc1nc(Cl)cc(-c2ccccc2)n1`, the T/C (dose: 15.0 mg/kg/injection, schedule: Q01DX011 (ip), vehicle: methylcellulose (MC)) was 86 % of control; the T/C under setting [1] was 122 % of control; the T/C under setting [2] was 94 % of control; the T/C (dose: 125.0 mg/kg/injection, schedule: Q01DX011 (ip), vehicle: methylcellulose (MC)) was 65 % of control; the T/C (dose: 250.0 mg/kg/injection, schedule: Q01DX011 (ip), vehicle: methylcellulose (MC)) was 107 % of control.
Regarding `Nc1nc(=S)c2ncn(C3OC(COC(=O)c4ccc([N+](=O)[O-])cc4)C(OC(=O)c4ccc([N+](=O)[O-])cc4)C3OC(=O)c3ccc([N+](=O)[O-])cc3)c2[nH]1` (stereo not given), the T/C by setting is: under setting [3], 34 % of control; under setting [4], 20 % of control.
Consider `CCCCOC(=O)C1(N)CCCC1`, for which the T/C is 75 % of control (dose: 3.12 mg/kg/injection, schedule: Q01DX011 (ip), vehicle: carboxymethylcellulose (CMC)); 80 % of control (dose: 6.25 mg/kg/injection, schedule: Q01DX011 (ip), vehicle: carboxymethylcellulose (CMC)); 66 % of control under setting [3]; 29 % of control and 35 % of control under setting [4]; 12 % of control under setting [5].
As to `CCCCn1cnc2c(SCc3ccccn3)nc(N)nc21`, the T/C was 6 % of control (dose: 3.6 mg/kg/injection, schedule: Q01DX011 (ip), vehicle: methylcellulose (MC)) and 2 % of control (dose: 7.25 mg/kg/injection, schedule: Q01DX011 (ip), vehicle: methylcellulose (MC)).
Consider `CSc1ncc(Br)c(SC)n1`, for which the T/C was 102 % of control under setting [1] and 93 % of control under setting [2].
As to `O=C(Nc1ncnc2nc[nH]c12)C(Cl)Cl`, for the setting “dose: 100.0 mg/kg/injection, schedule: Q01DX011 (ip), vehicle: saline”, the T/C is 77 % of control.
As for `CCCC(=O)OCC1OC(n2cnc3c(=S)nc(N)[nH]c32)C(OC(=O)CCC)C1OC(=O)CCC` (stereo not given), the T/C was 57 % of control (dose: 0.16 mg/kg/injection, schedule: Q01DX011 (ip), vehicle: saline); 88 % of control (dose: 0.38 mg/kg/injection, schedule: Q01DX011 (ip), vehicle: saline); 82 % of control (dose: 0.58 mg/kg/injection, schedule: Q01DX011 (ip), vehicle: saline); 31 % of control (dose: 1.3 mg/kg/injection, schedule: Q01DX011 (ip), vehicle: saline); 18 % of control (dose: 2.0 mg/kg/injection, schedule: Q01DX011 (ip), vehicle: saline); 4 % of control (dose: 3.0 mg/kg/injection, schedule: Q01DX011 (ip), vehicle: saline). Further, the T/C (dose: 6.0 mg/kg/injection, schedule: Q01DX011 (ip), vehicle: carboxymethylcellulose (CMC)) is 2 % of control and 11 % of control; the T/C (dose: 12.0 mg/kg/injection, schedule: Q01DX011 (ip), vehicle: carboxymethylcellulose (CMC)) was 2 % of control and 3 % of control; the T/C (dose: 24.0 mg/kg/injection, schedule: Q01DX011 (ip), vehicle: carboxymethylcellulose (CMC)) was 1 % of control.
With `c1nc(SC2CCCC2)c2[nH]cnc2n1`, the T/C (dose: 0.62 mg/kg/injection, schedule: Q01DX011 (ip), vehicle: carboxymethylcellulose (CMC)) is 76 % of control; the T/C (dose: 0.62 mg/kg/injection, schedule: Q01DX011 (oral), vehicle: carboxymethylcellulose (CMC)) was 93 % of control; the T/C (dose: 1.25 mg/kg/injection, schedule: Q01DX011 (ip), vehicle: carboxymethylcellulose (CMC)) is 66 % of control; the T/C (dose: 2.5 mg/kg/injection, schedule: Q01DX011 (ip), vehicle: carboxymethylcellulose (CMC)) was 45 % of control; the T/C (dose: 2.5 mg/kg/injection, schedule: Q01DX011 (oral), vehicle: carboxymethylcellulose (CMC)) is 62 % of control; the T/C (dose: 5.0 mg/kg/injection, schedule: Q01DX011 (oral), vehicle: carboxymethylcellulose (CMC)) was 6 % of control. For the same compound, the T/C (dose: 5.2 mg/kg/injection, schedule: Q01DX011 (ip), vehicle: carboxymethylcellulose (CMC)) is 59 % of control; the T/C (dose: 10.0 mg/kg/injection, schedule: Q01DX011 (ip), vehicle: carboxymethylcellulose (CMC)) was 6 % of control; the T/C (dose: 10.0 mg/kg/injection, schedule: Q01DX011 (oral), vehicle: carboxymethylcellulose (CMC)) is 3 % of control; the T/C (dose: 10.5 mg/kg/injection, schedule: Q01DX011 (ip), vehicle: carboxymethylcellulose (CMC)) is 20 % of control; the T/C (dose: 21.0 mg/kg/injection, schedule: Q01DX011 (ip), vehicle: carboxymethylcellulose (CMC)) is 6 % of control and 17 % of control; the T/C (dose: 21.0 mg/kg/injection, schedule: Q01DX011 (oral), vehicle: carboxymethylcellulose (CMC)) is 7 % of control. Further, the T/C is 4 % of control (dose: 42.0 mg/kg/injection, schedule: Q01DX011 (ip), vehicle: carboxymethylcellulose (CMC)); 1 % of control (dose: 42.5 mg/kg/injection, schedule: Q01DX011 (ip), vehicle: carboxymethylcellulose (CMC)); 5 % of control (dose: 84.0 mg/kg/injection, schedule: Q01DX011 (oral), vehicle: carboxymethylcellulose (CMC)); 1 % of control and 2 % of control (dose: 85.0 mg/kg/injection, schedule: Q01DX011 (ip), vehicle: carboxymethylcellulose (CMC)); 2 % of control (dose: 85.0 mg/kg/injection, schedule: Q01DX011 (oral), vehicle: carboxymethylcellulose (CMC)); 43 % of control (dose: 87.0 mg/kg/injection, schedule: Q01DX001 (ip), vehicle: carboxymethylcellulose (CMC)). Besides, the T/C is 44 % of control (dose: 174.0 mg/kg/injection, schedule: Q01DX001 (ip), vehicle: carboxymethylcellulose (CMC)); 25 % of control (dose: 347.0 mg/kg/injection, schedule: Q01DX001 (ip), vehicle: carboxymethylcellulose (CMC)); 24 % of control (dose: 694.0 mg/kg/injection, schedule: Q01DX001 (ip), vehicle: carboxymethylcellulose (CMC)).
Consider `Nc1nsnc1C(=O)O`, for which the T/C runs as follows: (dose: 93.0 mg/kg/injection, schedule: Q01DX011 (ip), vehicle: carboxymethylcellulose (CMC)) 80 % of control; (dose: 187.0 mg/kg/injection, schedule: Q01DX011 (ip), vehicle: carboxymethylcellulose (CMC)) 98 % of control.
`Cc1cc(O)c(C(C)C)cc1S(=O)(=O)O` (tested in a mixture with another compound): the T/C reads like this: under setting [4], 78 % of control; (dose: 25.0 mg/kg/injection, schedule: Q01DX011 (ip), vehicle: other) 32 % of control; under setting [5], 53 % of control; (dose: 50.0 mg/kg/injection, schedule: Q01DX011 (ip), vehicle: other) 83 % of control; (dose: 100.0 mg/kg/injection, schedule: Q01DX011 (ip), vehicle: carboxymethylcellulose (CMC)) 49 % of control; (dose: 100.0 mg/kg/injection, schedule: Q01DX011 (ip), vehicle: other) 44 % of control. Moreover, the T/C under setting [6] is 42 % of control and the T/C (dose: 200.0 mg/kg/injection, schedule: Q01DX011 (ip), vehicle: other) is 7 % of control.
As to `Cc1cnc(SCc2ccccc2Cl)nc1SCc1ccccc1Cl`, the T/C is, setting by setting: under setting [1], 81 % of control; under setting [2], 65 % of control.
Consider `CN1c2ccc3ccccc3c2Sc2ccc3ccccc3c21`, for which the T/C was 53 % of control (dose: 8.25 mg/kg/injection, schedule: Q01DX011 (ip), vehicle: carboxymethylcellulose (CMC)); 71 % of control (dose: 16.5 mg/kg/injection, schedule: Q01DX011 (ip), vehicle: carboxymethylcellulose (CMC)); 59 % of control under setting [4]; 66 % of control (dose: 29.0 mg/kg/injection, schedule: Q01DX011 (ip), vehicle: carboxymethylcellulose (CMC)); 46 % of control (dose: 33.0 mg/kg/injection, schedule: Q01DX011 (ip), vehicle: carboxymethylcellulose (CMC)); 80 % of control (dose: 44.0 mg/kg/injection, schedule: Q01DX011 (ip), vehicle: carboxymethylcellulose (CMC)). The T/C runs as follows: under setting [5], 69 % of control; (dose: 66.0 mg/kg/injection, schedule: Q01DX011 (ip), vehicle: carboxymethylcellulose (CMC)) 29 % of control and 39 % of control and 40 % of control; (dose: 150.0 mg/kg/injection, schedule: Q01DX011 (ip), vehicle: carboxymethylcellulose (CMC)) 27 % of control; under setting [6], 48 % of control; (dose: 387.5 mg/kg/injection, schedule: Q01DX011 (ip), vehicle: carboxymethylcellulose (CMC)) 55 % of control.
